# Measurements from US11420950B2, “Heterocyclicalkyl derivative compounds as selective histone deacetylase inhibitors and pharmaceutical compositions comprising the same” (Chong Kun Dang Pharmaceutical Corp., priority 2015, dated 2022).
# Columns and labels:
# [1] = tested on: adjuvant-induced arthritis models; experiment: Adjuvant-induced arthritis model, clinical score; assay type: in vivo; details: Lewis rat, vehicle 9-11
# Method: […] of complete Freund's adjuvant (Chondrex) was injected intradermally into the tail of each Lewis rat to induce animal models. From one day before induction, the rats were divided into groups based on body weight, and the test compound was administered orally to the rats at various doses once a day, followed by evaluation.
# Clinical score and body weight were measured twice a week from the day of first administration of the test compound. The clinical score was recorded as 0-4 points, and the total clinical score was evaluated after observing the foot of each rat (0: normal; and 16: the most severe edema).
# The medicinal effect of the test compound in the arthritis models was evaluated based on the degree of joint edema, and a higher clinical score indicates a more severe degree of edema.
# HDAC1 = biological target: T1, HDAC1 (Homo sapiens, UniProt Q13547); experiment: HDAC1 enzyme inhibition, HDAC1 fluorimetric drug discovery assay kit; assay type: biochemical; details: 100-10000 nM tested, 37° C. 60 minutes, fluorescence; read-out: HDAC1 (μM), ability to inhibit the activity of HDAC enzyme
# T1 construct: purchased Enzolifesciences BML-AK511
# T1 sequence (Q13547 whole entry): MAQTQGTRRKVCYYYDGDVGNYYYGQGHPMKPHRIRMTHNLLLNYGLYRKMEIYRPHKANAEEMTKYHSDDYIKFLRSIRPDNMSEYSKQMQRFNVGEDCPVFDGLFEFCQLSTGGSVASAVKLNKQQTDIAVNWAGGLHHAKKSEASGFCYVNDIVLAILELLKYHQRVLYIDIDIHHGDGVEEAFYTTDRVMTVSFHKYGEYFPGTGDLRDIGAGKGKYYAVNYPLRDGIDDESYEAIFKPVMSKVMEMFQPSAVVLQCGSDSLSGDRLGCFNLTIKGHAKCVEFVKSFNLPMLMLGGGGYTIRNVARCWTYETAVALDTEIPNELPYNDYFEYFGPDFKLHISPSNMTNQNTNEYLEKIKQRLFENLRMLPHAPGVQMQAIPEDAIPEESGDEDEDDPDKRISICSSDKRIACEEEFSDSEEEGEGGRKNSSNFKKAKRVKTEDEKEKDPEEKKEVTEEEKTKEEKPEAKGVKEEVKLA
# Method: (§1) Using a HDAC1 fluorimetric drug discovery assay kit (Enzolifesciences: BML-AK511) and a HDAC6 human recombinant (Calbiochem: 382180), the HDAC enzyme inhibitory abilities of test compounds were measured. It was treated with 100, 1000 and 10000 nM concentrations for HDAC1 assay, and 0.1, 1, 10, 100 and 1000 nM concentrations for HDAC6 assay. It was allowed to react at 37° C. for 60 minutes, and then was treated with a developer and allowed to react at 37° C. for 30 minutes, after which the fluorescence intensity (Ex 390 nm; Em 460 nm) was measured using FlexStatin3 (Molecular Device).
# HDAC6 human recombinant = biological target: T2, HDAC6 human recombinant (Homo sapiens, UniProt Q9UBN7); experiment: HDAC6 enzyme inhibition, fluorimetric assay; assay type: biochemical; details: for IC50: 0.1-1000 nM tested, 37° C. 60 minutes, fluorescence, read-out: HDAC6 (μM), ability to inhibit the activity of HDAC enzyme; for selectivity for HDAC1/6 enzymes (HDAC1/HDAC6): ratio of HDAC1 to HDAC6 values
# T2 construct: purchased Calbiochem 382180
# T2 sequence (Q9UBN7 1-1215): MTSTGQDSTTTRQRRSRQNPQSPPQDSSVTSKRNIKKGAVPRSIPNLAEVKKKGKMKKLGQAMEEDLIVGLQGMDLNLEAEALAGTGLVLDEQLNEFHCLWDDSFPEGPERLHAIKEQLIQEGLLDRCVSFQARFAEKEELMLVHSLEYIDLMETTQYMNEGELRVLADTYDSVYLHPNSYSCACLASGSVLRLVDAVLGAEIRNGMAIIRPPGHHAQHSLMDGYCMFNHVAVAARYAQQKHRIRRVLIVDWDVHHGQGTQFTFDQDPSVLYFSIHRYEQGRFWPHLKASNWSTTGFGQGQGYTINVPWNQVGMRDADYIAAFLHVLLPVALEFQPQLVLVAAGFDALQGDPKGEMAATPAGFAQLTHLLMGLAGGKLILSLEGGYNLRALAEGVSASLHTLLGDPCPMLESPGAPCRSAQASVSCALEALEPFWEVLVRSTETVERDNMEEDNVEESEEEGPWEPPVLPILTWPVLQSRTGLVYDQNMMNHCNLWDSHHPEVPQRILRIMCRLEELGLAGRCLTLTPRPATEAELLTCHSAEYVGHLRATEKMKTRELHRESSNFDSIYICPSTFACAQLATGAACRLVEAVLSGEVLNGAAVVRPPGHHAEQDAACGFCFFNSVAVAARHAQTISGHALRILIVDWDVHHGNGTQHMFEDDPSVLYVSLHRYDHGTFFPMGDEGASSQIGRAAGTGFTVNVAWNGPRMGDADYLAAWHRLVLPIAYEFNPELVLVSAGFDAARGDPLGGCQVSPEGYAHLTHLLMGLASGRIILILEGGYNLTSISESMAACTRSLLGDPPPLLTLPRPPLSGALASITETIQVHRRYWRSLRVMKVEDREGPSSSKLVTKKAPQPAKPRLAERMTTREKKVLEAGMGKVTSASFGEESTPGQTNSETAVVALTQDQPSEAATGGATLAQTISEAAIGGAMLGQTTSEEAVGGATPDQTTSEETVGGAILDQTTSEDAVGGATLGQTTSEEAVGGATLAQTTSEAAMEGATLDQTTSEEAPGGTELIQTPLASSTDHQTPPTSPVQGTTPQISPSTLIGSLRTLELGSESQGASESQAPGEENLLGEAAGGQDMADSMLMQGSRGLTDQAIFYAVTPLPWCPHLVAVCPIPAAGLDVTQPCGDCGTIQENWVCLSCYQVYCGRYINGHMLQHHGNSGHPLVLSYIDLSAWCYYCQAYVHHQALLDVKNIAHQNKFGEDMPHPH
# Method: as §1
Compound,IC50 (HDAC1) [µM],IC50 (HDAC6 human recombinant) [µM],selectivity for HDAC1/6 enzymes (HDAC1/HDAC6) (HDAC6 human recombinant) [fold],"clinical score (joint edema, 0: normal; 16: the most severe edema) ([1]; 1 mg/kg orally once a day)","clinical score (joint edema, 0: normal; 16: the most severe edema) ([1]; 10 mg/kg orally once a day)","clinical score (joint edema, 0: normal; 16: the most severe edema) ([1]; 50 mg/kg orally once a day)"
"O=C(CCCCCCNC(=O)N1CCN(C(c2ccccc2)c2ccccc2)CC1)NO [Compound 1102, 4-benzhydryl-N-(7-(hydroxyamino)-7-oxoheptyl)piperazine-1-carboxamide]",3.84,0.004,960,6-8,4-6,1-3
"O=C(CCCCCCNC(=O)N1CCC(C(O)(c2ccccc2)c2ccccc2)CC1)NO [Compound 1124, N-(7-(hydroxyamino)-7-oxoheptyl)-4-(hydroxydiphenylmethyl)piperidine-1-carboxamide]",4.09,0.024,170,–,–,–
"C[C@@H]1CN(C(c2ccccc2)c2ccccc2)C[C@H](C)N1C(=O)NCCCCCCC(=O)NO [Compound 1188, (2S,6R)-4-benzhydryl-N-(7-(hydroxyamino)-7-oxoheptyl)-2,6-dimethylpiperazine-1-carboxyamide]",1.68,0.014,–,–,–,–
"O=C(CCCCCCNS(=O)(=O)N1CCC(C(O)(c2ccccc2)c2ccccc2)CC1)NO [Compound 1210, N-hydroxy-7-((4-(hydroxydiphenylmethyl)piperidine)-1-sulfonamido)heptanamide]",1.19,0.07,–,–,–,–
"CN(CCCCCCC(=O)NO)C(=O)N1CCN(C(c2ccccc2)c2ccccc2)CC1 [Compound 1213, 4-benzhydryl-N-(7-(hydroxyamino)-7-oxoheptyl)-N-methylpiperazine-1-carboxamide]",0.704,0.044,–,–,–,–
"O=C(CCCCCCNC(=O)N1CCC(N(c2ccccc2)c2ccccc2)CC1)NO [Compound 1221, 4-(diphenylamino)-N-(7-(hydroxyamino)-7-oxoheptyl)piperidine-1-carboxamide]",1.88,0.079,–,–,–,–
O=C(CCCCCCNC(=O)N1CCN(C(c2ccccn2)c2ccccn2)CC1)NO [Compound 1222],0.71,0.085,–,–,–,–
O=C(CCCCCCNC(=O)N1CCN(C(c2ccc(F)cc2)c2ccc(F)cc2)CC1)NO [Compound 1223],1.16,0.073,–,–,–,–
O=C(CCCCCCNC(=O)N1CCN(C(c2ccc(Cl)cc2)c2ccc(Cl)cc2)CC1)NO [Compound 1224],3.96,0.087,–,–,–,–
"O=C(CCCCCCCNC(=O)N1CCN(C(c2ccccc2)c2ccccc2)CC1)NO [Compound 1240, 4-benzhydryl-N-(8-(hydroxyamino)-8-oxoethyl)piperazine-1-carboxamide]",0.41,0.07,–,–,–,–
"O=C(CCCCCNC(=O)N1CCN(C(c2ccccc2)c2ccccc2)CC1)NO [Compound 1257, 4-benzhydryl-N-(6-(hydroxyamino)-6-oxohexyl)piperazine-1-carboxamide]",0.159,0.063,–,–,–,–
"O=C(CCCCCCNC(=O)N1CCN(C(c2ccccc2F)c2ccccc2F)CC1)NO [Compound 1647, 4-(bis(2-fluorophenyl)methyl)-N-(7-(hydroxyamino)-7-oxoheptyl)piperazine-1-carboxamide]",0.466,0.019,–,–,–,–
O=C(CCCCCCNC(=O)N1CCN(C(c2cccc(F)c2)c2cccc(F)c2)CC1)NO [Compound 1648],0.729,0.029,–,–,–,–
"O=C(CCCCCCNC(=O)N1CCC(C(F)(c2ccccc2)c2ccccc2)CC1)NO [Compound 1649, 4-(fluorodiphenylmethyl)-N-(7-(hydroxyamino)-7-oxoheptyl)piperidine-1-carboxamide]",0.463,0.033,–,–,–,–
"O=C(CCCCCCNC(=O)N1CCC(N(c2ccccc2)c2cccc(F)c2)CC1)NO [Compound 1719, 4-((3-fluorophenyl)(phenyl)amino)-N-(7-(hydroxyamino)-7-oxoheptyl)piperidine-1-carboxamide]",1.73,0.116,–,–,–,–
"O=C(CCCCCCNC(=O)N1CCC(N(c2ccccc2)c2ccc(F)cc2)CC1)NO [Compound 1734, 4-((4-fluorophenyl)(phenyl)amino)-N-(7-(hydroxyamino)-7-oxoheptyl)piperidine-1-carboxamide]",0.886,0.094,–,–,–,–
"O=C(CCCCCNC(=O)N1CC2(CCN(C(c3ccccc3)c3ccccc3)CC2)C1)NO [Compound 1763, 7-benzhydryl-N-(6-(hydroxyamino)-6-oxohexyl)-2,7-diazaspiro[3.5]nonane-2-carboxamide]",0.023,0.201,–,–,–,–
"O=C(CCCCCCNC(=O)N1CC2(CCN(C(c3ccccc3)c3ccccc3)CC2)C1)NO [Compound 1764, 7-benzhydryl-N-(7-(hydroxyamino)-7-oxoheptyl)-2,7-diazaspiro[3.5]nonane-2-carboxamide]",0.236,0.04,–,–,–,–
N-(7-(hydroxyamino)-7-oxoheptyl)-4-(phenyl(4-(trifluoromethyl)phenyl)amino)piperidine-1-carboxamie [Compound 1726],3.7,0.228,–,–,–,–

# More lines, main results first:
IC50 (HDAC1) [µM],IC50 (HDAC6 human recombinant) [µM],selectivity for HDAC1/6 enzymes (HDAC1/HDAC6) (HDAC6 human recombinant) [fold],Compound,"clinical score (joint edema, 0: normal; 16: the most severe edema) ([1]; 1 mg/kg orally once a day)","clinical score (joint edema, 0: normal; 16: the most severe edema) ([1]; 10 mg/kg orally once a day)","clinical score (joint edema, 0: normal; 16: the most severe edema) ([1]; 50 mg/kg orally once a day)"
0.84,0.025,–,"C[C@@H]1CN(C(c2ccccc2)c2ccccc2)CCN1C(=O)NCCCCCCC(=O)NO [Compound 1189, (R)-4-benzhydryl-N-(7-(hydroxyamino)-7-oxoheptyl)-2-methylpiperazine-1-carboxamide]",–,–,–
1.34,0.065,–,"C[C@H]1CN(C(c2ccccc2)c2ccccc2)CCN1C(=O)NCCCCCCC(=O)NO [Compound 1190, (S)-4-benzhydryl-N-(7-(hydroxyamino)-7-oxoheptyl)-2-methylpiperazine-1-carboxamide]",–,–,–
1.16,0.006,193,"O=C(CCCCCCNC(=O)C1CCN(C(c2ccccc2)c2ccccc2)CC1)NO [Compound 1209, 1-benzhydryl-N-(7-(hydroxyamino)-7-oxoheptyl)piperidine-4-carboxamide]",–,–,–
0.72,0.025,–,"CC(c1ccccc1)N1CCN(C(=O)NCCCCCCC(=O)NO)CC1 (stereo not drawn) [Compound 1241, N-(7-(hydroxyamino)-7-oxoheptyl)-4-(1-phenylethyl)piperazine-1-carboxamide]",–,–,–
0.54,0.017,–,"CC(c1ccccc1)N1CCC(C(=O)NCCCCCCC(=O)NO)CC1 (stereo not drawn) [Compound 1243, N-(7-(hydroxyamino)-7-oxoheptyl)-1-(1-phenylethyl)piperidine-4-carboxamide]",–,–,–
0.08,0.038,–,"CN(CCCCCCC(=O)NO)C(=O)C1CCN(C(c2ccccc2)c2ccccc2)CC1 [Compound 1256, 1-benzhydryl-N-(7-(hydroxyamino)-7-oxoheptyl)-N-methylpiperidine-4-carboxamide]",–,–,–
0.236,0.456,–,"O=C(CCCCCNC(=O)C1CCN(C(c2ccccc2)c2ccccc2)CC1)NO [Compound 1316, 1-benzhydryl-N-(6-(hydroxyamino)-6-oxohexyl)piperidine-4-carboxamide]",–,–,–
0.023,0.336,–,O=C(CCCCCCCNC(=O)C1CCN(C(c2ccccc2)c2ccccc2)CC1)NO [Compound 1317],–,–,–
